Experimental data: ChEMBL document CHEMBL2046310, “Synthesis and biological evaluation of novel 4β-(1,3,4-oxadiazole-2-amino)-podophyllotoxin derivatives” (Bioorg Med Chem Lett, 2012)
Active and inactive are the calls of the source. No cut-off for these calls is given here.

Experiments:
[1] = test system: Vero; assay: Cytotoxicity against african green monkey Vero cells after 72 hrs by MTT assay; type: cell-based; conditions: Chlorocebus sabaeus
[2] = test system: A549; assay: Cytotoxicity against human A549 cells after 72 hrs by MTT assay; type: functional, cell-based; conditions: A549, 72 h
[3] = test system: DU-145; assay: Cytotoxicity against human DU145 cells after 72 hrs by MTT assay; type: functional, cell-based; conditions: DU-145, 72 h
[4] = test system: SH-SY5Y; assay: Cytotoxicity against human SH-SY5Y cells after 72 hrs by MTT assay; type: functional, cell-based
[5] = test system: HeLa; assay: cells; conditions: Homo sapiens, 72 h
Description: Cytotoxicity against human HeLa cells after 72 hrs by MTT assay

[6] = test system: L929; assay: Cytotoxicity against mouse L929 cells after 72 hrs by MTT assay; type: cell-based; conditions: L929, 72 h
[7] = test system: SGC-7901; assay: Cytotoxicity against human SGC7901 cells after 72 hrs by MTT assay; type: functional, cell-based; conditions: SGC-7901, 72 h
[8] = test system: HepG2; assay: cells; conditions: Homo sapiens, HepG2, 72 h
Description: (§1) Cytotoxicity against human HepG2 cells after 72 hrs by MTT assay

[9] = test system: HepG2; assay: Cell cycle arrest in human HepG2 cells assessed as accumulation at S phase after 48 hrs by propidium iodide staining-based flow cytometric analysis; type: functional
[10] = test system: HepG2; assay: Induction of apoptosis in human HepG2 cells assessed as late apoptotic to necrotic cells at 0.25 uM after 48 hrs by annexinV/propidium iodide staining-based flow cytometric analysis (reference value: 1.61%); type: functional
[11] = test system: HepG2; assay: Induction of apoptosis in human HepG2 cells assessed as late apoptotic to necrotic cells at 2 uM after 48 hrs by annexinV/propidium iodide staining-based flow cytometric analysis (reference value: 1.61%); type: functional
[12] = test system: HepG2; assay: Cell cycle arrest in human HepG2 cells assessed as accumulation at subG1 after 48 hrs by propidium iodide staining-based flow cytometric analysis; type: functional
[13] = test system: HepG2; assay: Induction of apoptosis in human HepG2 cells assessed as appearance of apoptotic bodies at 0.25 to 2 uM after 48 hrs by Hoechst staining-based microscopic analysis; type: functional, cell-based
[14] = test system: HepG2; assay: Induction of apoptosis in human HepG2 cells assessed as […] of nuclear fragment at 0.25 to 2 uM after 48 hrs by Hoechst staining-based microscopic analysis; type: functional, cell-based
[15] = test system: HepG2; conditions: Homo sapiens
Description: as §1

[16] = test system: HepG2; assay: Induction of apoptosis in human HepG2 cells assessed as early apoptotic cells at 0.5 uM after 48 hrs by annexinV/propidium iodide staining-based flow cytometric analysis (reference value: 0.47%); type: functional
[17] = test system: HepG2; assay: Induction of apoptosis in human HepG2 cells assessed as early apoptotic cells at 1 uM after 48 hrs by annexinV/propidium iodide staining-based flow cytometric analysis (reference value: 0.47%); type: functional
[18] = test system: HepG2; assay: Induction of apoptosis in human HepG2 cells assessed as late apoptotic to necrotic cells at 1 uM after 48 hrs by annexinV/propidium iodide staining-based flow cytometric analysis (reference value: 1.61%); type: functional
[19] = test system: HepG2; assay: Induction of apoptosis in human HepG2 cells assessed as early apoptotic cells at 0.25 uM after 48 hrs by annexinV/propidium iodide staining-based flow cytometric analysis (reference value: 0.47%); type: functional
[20] = test system: HepG2; assay: Inhibition of DNA topoisomerase 2beta mRNA expression in human HepG2 cells at 0.5 to 8 uM after 6 hrs by RT-PCR analysis; type: functional, cell-based
[21] = test system: HepG2; assay: Cytotoxicity against human HepG2 cells by MTT assay; type: functional, cell-based; conditions: TDE = time-dependent effect
[22] = test system: HepG2; assay: Inhibition of DNA topoisomerase 2alpha protein expression in human HepG2 cells at 0.5 to 1 uM after 48 hrs by Western blot analysis; type: functional, cell-based
[23] = test system: HepG2; assay: Induction of apoptosis in human HepG2 cells assessed as late apoptotic to necrotic cells at 0.5 uM after 48 hrs by annexinV/propidium iodide staining-based flow cytometric analysis (reference value: 1.61%); type: functional
[24] = test system: HepG2; assay: Induction of apoptosis in human HepG2 cells assessed as early apoptotic cells at 2 uM after 48 hrs by annexinV/propidium iodide staining-based flow cytometric analysis (reference value: 0.47%); type: functional

Structure (SMILES)	IC50 [1]	IC50 [2]	IC50 [3]	IC50 [4]	IC50 [5]	IC50 [6]	IC50 ([7]; read-out: IC50)	IC50 [8]	further results
COc1cc([C@@H]2c3cc4c(cc3[C@@H](Nc3nnco3)[C@H]3COC(=O)[C@H]23)OCO4)cc(OC)c1OC	15.4 µM	> 100 µM	11.3 µM	25.8 µM	> 100 µM	43.3 µM	> 100 µM	11.8 µM	–
COc1cc([C@@H]2c3cc4c(cc3[C@@H](Nc3nnc(-c5ccccc5)o3)[C@H]3COC(=O)[C@H]23)OCO4)cc(OC)c1OC	> 100 µM	–	> 100 µM	26.9 µM	85.3 µM	> 100 µM	> 100 µM	74.2 µM	–
COc1cc([C@@H]2c3cc4c(cc3[C@@H](O[C@@H]3O[C@@H]5CO[C@@H](C)O[C@H]5[C@H](O)[C@H]3O)[C@H]3COC(=O)[C@H]23)OCO4)cc(OC)c1O [ETOPOSIDE]	31.1 µM	10.1 µM	64.3 µM	5.37 µM	96.3 µM	1 µM	12.1 µM	5.48 µM	–
COc1cc([C@@H]2c3cc4c(cc3[C@@H](Nc3nnc(-c5ccc([N+](=O)[O-])cc5)o3)[C@H]3COC(=O)[C@H]23)OCO4)cc(OC)c1OC	–	–	> 100 µM	16.6 µM	> 100 µM	> 100 µM	> 100 µM	> 100 µM	–
COc1cc([C@@H]2c3cc4c(cc3[C@@H](Nc3nnc(-c5cccs5)o3)[C@H]3COC(=O)[C@H]23)OCO4)cc(OC)c1OC	> 100 µM	> 100 µM	> 100 µM	20 µM	42.5 µM	70.9 µM	56.6 µM	38.8 µM	–
COc1cc([C@@H]2c3cc4c(cc3[C@@H](Nc3nnc(-c5ccncc5)o3)[C@H]3COC(=O)[C@H]23)OCO4)cc(OC)c1OC	> 100 µM	> 100 µM	> 100 µM	41.5 µM	> 100 µM	20.5 µM	> 100 µM	96.6 µM	–
COc1cc([C@@H]2c3cc4c(cc3[C@@H](Nc3nnc(C)o3)[C@H]3COC(=O)[C@H]23)OCO4)cc(OC)c1OC	5.49 µM	> 100 µM	> 100 µM	14.7 µM	2.68 µM	19.6 µM	38.1 µM	1.51 µM	Activity [9]: Dose-dependent effect; Activity [10]: 1.31%; Activity [11]: 30.27%; Activity [12]: Dose-dependent effect; Activity [13]: Active; Activity [14]: Active; inhibition [15]: Dose-dependent effect; Activity [16]: 1.45%; Activity [17]: 8.03%; Activity [18]: 9.51%; Activity [19]: 0.62%; inhibition [20]: Active; inhibition [21]: tde; inhibition [22]: Active; Activity [23]: 2.77%; Activity [24]: 20.68%
COc1cc([C@@H]2c3cc4c(cc3[C@@H](Nc3nnc(C)o3)[C@H]3COC(=O)[C@H]23)OCO4)cc(OC)c1O	46.1 µM	> 100 µM	60.6 µM	4.61 µM	18.8 µM	4.82 µM	9.76 µM	17.9 µM	–
COc1cc([C@@H]2c3cc4c(cc3[C@H](O)[C@H]3COC(=O)[C@H]23)OCO4)cc(OC)c1OC [PODOFILOX]	1.78 µM	13.6 µM	> 100 µM	2.54 µM	7.58 µM	1.37 µM	2.95 µM	2.27 µM	–
COc1cc([C@@H]2c3cc4c(cc3[C@@H](Nc3nnc(-c5ccco5)o3)[C@H]3COC(=O)[C@H]23)OCO4)cc(OC)c1OC	> 100 µM	69.2 µM	35.4 µM	29.5 µM	58.9 µM	> 100 µM	–	38.8 µM	–
COc1ccc(-c2nnc(N[C@@H]3c4cc5c(cc4[C@@H](c4cc(OC)c(OC)c(OC)c4)[C@H]4C(=O)OC[C@@H]43)OCO5)o2)cc1	7.43 µM	53.7 µM	76.1 µM	7.39 µM	17.7 µM	18.2 µM	> 100 µM	27.9 µM	–
O=c1[nH]cc(F)c(=O)[nH]1 [FLUOROURACIL]	> 100 µM	–	12.3 µM	1.09 µM	16 µM	1.38 µM	–	32.2 µM	IC50 [7]: 14.5 µM
COc1cc([C@@H]2c3cc4c(cc3[C@@H](Nc3nnc(-c5cccnc5)o3)[C@H]3COC(=O)[C@H]23)OCO4)cc(OC)c1OC	> 100 µM	> 100 µM	> 100 µM	22.5 µM	> 100 µM	54.6 µM	> 100 µM	72.8 µM	–
